Source: patent publication US20230023070A1, “Therapy for the Treatment of Cancer” (Celegene Corporation, priority 2019, published 2023)
Entries after “also recorded” stand apart in the source; their conditions may differ.

Experiments:
[1] = test system: MM1.S cells; test: Anti-proliferative activity by 3H-thymidine incorporation, combination with bortezomib; type: cell-based; settings: 3 days, bortezomib 62.5 and 125.0 pM, pomalidomide 0.001-1.0 μM or Compound A-S 0.1-10.0 nM
Procedure: The anti-proliferative activity of pomalidomide (treatment of cells with 0.001-1.0 μM) combined with bortezomib (62.5 and 125.0 pM) or Compound A-S (treatment of cells with 0.1-10.0 nM) combined with bortezomib (62.5 and 125.0 pM) was measured by 3H-thymidine incorporation in MM1.S cells after 3 days of treatment in each condition. Combination indices (CI) were calculated using the Chou-Talalay Method for each combination. CI values below 1 indicated synergistic activity of combination.

[2] = test system: KMS-12BM cells; test: Apoptosis by flow cytometry, Annexin-V and ToPro3 staining, after proteasome inhibitor pulse; type: cell-based; settings: then 3 days treatment, AnnV+/ToPro3+; for apoptosis / cell killing in combination with bortezomib: 1 hour pulse with bortezomib; for apoptosis / cell killing in combination with carfilzomib: 1 hour pulse with carfilzomib
Procedure: Apoptosis was measured in KMS-12BM cells by flow cytometry using Annexin-V (AnnV+; x-axis) and ToPro3+ (y-axis) staining after either vehicle (DMSO), pomalidomide (POM) or Compound A-S treatment over 3 days following 1 hour pulse treatment with DMSO, Bortezomib (BORT) or Carfilzomib (CFZ) at indicated concentrations.

SMILES	anti-proliferative activity in combination with bortezomib (combination index, Chou-Talalay; CI below 1 = synergistic) [1]	apoptosis / cell killing in combination with bortezomib [2]	apoptosis / cell killing in combination with carfilzomib [2]
O=C1CC[C@H](N2Cc3c(OCc4ccc(CN5CCOCC5)cc4)cccc3C2=O)C(=O)N1 [Compound A-S, (S)-3-(4-((4-(morpholinomethyl)benzyl)oxy)-1-oxoisoindolin-2-yl)piperidine-2,6-dione]	synergistic	induced cell killing; also recorded: apoptosis induced	induced cell killing; also recorded: apoptosis induced
Nc1cccc2c1C(=O)N(C1CCC(=O)NC1=O)C2=O (stereo not drawn) [pomalidomide, reference compound]	synergistic	induced cell killing	induced cell killing
